Reference: patent publication US6875760B2 (Novo Nordisk A/S, priority 1999, dated 2005)
pIC50: −log10 of the molar value.

What follows are compounds tested against T1, human glucagon receptor (Homo sapiens, UniProt P47871) (assay: Glucagon Binding Assay (III)). Conditions: BHK cell membranes, WGA SPA beads, 125I-glucagon; read-out: Glu Bd Assay (III) IC50.
T1 construct: expressed in transfected cells; host or cells: BHK (baby hamster kidney) cells
How it was run: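 Membranes from BHK cells transfected with the human receptor, prepared at 4 °C, were used in a WGA-bead scintillation proximity binding format. Plates were shaken for 4 hours, left to settle 8–48 hours and then counted. Non-specific binding was defined with 500 nM glucagon.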

T1 sequence (P47871 26-477): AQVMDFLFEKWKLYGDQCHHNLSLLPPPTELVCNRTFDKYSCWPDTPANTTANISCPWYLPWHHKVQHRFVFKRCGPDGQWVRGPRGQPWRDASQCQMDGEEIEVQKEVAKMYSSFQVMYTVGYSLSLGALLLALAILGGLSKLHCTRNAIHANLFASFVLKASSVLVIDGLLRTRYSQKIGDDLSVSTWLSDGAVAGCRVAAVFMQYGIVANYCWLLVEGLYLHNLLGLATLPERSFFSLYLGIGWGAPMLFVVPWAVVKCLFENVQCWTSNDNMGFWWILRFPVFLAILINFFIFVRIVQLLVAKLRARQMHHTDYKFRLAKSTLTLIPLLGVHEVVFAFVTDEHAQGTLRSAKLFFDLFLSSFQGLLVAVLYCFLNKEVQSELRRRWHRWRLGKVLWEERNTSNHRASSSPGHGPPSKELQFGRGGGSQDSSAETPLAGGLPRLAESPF

Row | SMILES | pIC50
1 | CC(C)(C)C1CCC(N(Cc2ccc(C(=O)Nc3nn[nH]n3)cc2)C(=O)Cc2ccc(-c3ccccc3)cc2)CC1 (stereo not shown) [Example 547, 4-{[(2-Biphenyl-4-ylacetyl)-(4-tert-butylcyclohexyl)amino]methyl}-N-(2H-tetrazol-5-yl)benzamide] | 7.06
2 | CC(C)(C)C1CCC(N(Cc2ccc(C(=O)Nc3nn[nH]n3)cc2)C(=O)/C=C/c2ccc(Cl)cc2)CC1 (stereo not shown) [Example 549, 4-({(4-tert-Butylcyclohexyl)-[3-(4-chlorophenyl)acroloyl]amino}methyl)-N-(2H-tetrazol-5-yl)benzamide] | 7.26
3 | CC(C(=O)N(Cc1ccc(C(=O)Nc2nn[nH]n2)cc1)C1CCC(C(C)(C)C)CC1)c1ccccc1 (stereo not shown) [Example 550, 4-{[(4-tert-Butylcyclohexyl)-(2-Phenylpropionyl)amino]methyl}-N-(2H-tetrazol-5-yl)benzamide] | 6.42
4 | CC(C)(C)C1CCC(N(Cc2ccc(C(=O)Nc3nn[nH]n3)cc2)C(=O)/C=C/c2cccc(Cl)c2)CC1 (stereo not shown) [Example 551, 4-({(4-tert-Butylcyclohexyl)-[3-(3-chlorophenyl)acroloyl]amino}methyl)-N-(2H-tetrazol-5-yl)benzamide] | 6.87
5 | O=C(Nc1nn[nH]n1)c1ccc(CN(C(=O)/C=C/c2ccccc2Cl)c2ccc(N3CCCCC3)cc2)cc1 [Example 555, 4-{[[3-(2-Chlorophenyl)acryloyl]-(4-piperidin-1-ylphenyl)amino]methyl}-N-(2H-tetrazol-5-yl)benzamide] | 6.22
6 | O=C(O)CCNC(=O)c1ccc(CN(CC(c2ccccc2)c2ccccc2)C(=O)Cc2cccc(OC(F)(F)F)c2)cc1 [Example 556] | 6.18
7 | CC(C)(C)C1CCC(N(Cc2ccc(C(=O)Nc3nn[nH]n3)cc2)C(=O)c2cc3cc(OC(F)(F)F)ccc3[nH]2)CC1 (stereo not shown) [Example 557, 5-Trifluoromethoxy-1H-indole-2-carboxylic acid (4-tert-butylcyclohexyl)-[4-(2H-tetrazol-5-ylcarbamoyl)benzyl]amide] | 6.58
8 | O=C(O)CCNC(=O)c1ccc(CN(C(=O)c2cc(-c3ccc(Cl)cc3)cs2)c2ccc(C3CCCCC3)cc2)cc1 [Example 560, 3-(4-{[[4-(4-Chlorophenyl)thiophene-2-carbonyl]-(4-cyclohexylphenyl)amino]methyl}benzoylamino)propionic acid] | 5.81
9 | O=C(O)CCNC(=O)c1ccc(CN(C(=O)c2cc3cc(Cl)ccc3o2)c2ccc(C3CCCCC3)cc2)cc1 [Example 561, 3-(4-{[(5-Chlorobenzofuran-2-carbonyl)-(4-cyclohexylphenyl)amino]methyl}benzoylamino)propionic acid] | 6.43
10 | O=C(O)CCNC(=O)c1ccc(CN(CC(c2ccccc2)c2ccccc2)C(=O)c2cc3cc(Cl)ccc3o2)cc1 [Example 563, 3-(4-{[(5-Chlorobenzofuran-2-carbonyl)-(2,2-diphenylethyl)amino]methyl}benzoylamino)propionic acid] | 6.39
11 | CC(C)(C)C1CCC(N(Cc2ccc(C(=O)Nc3nn[nH]n3)cc2)C(=O)c2cc(-c3ccc(Cl)cc3)cs2)CC1 (stereo not shown) [Example 564, 4-(4-Chlorophenyl)thiophene-2-carboxylic acid (4-tert-butylcyclohexyl)-[4-(2H-tetrazol-5-ylcarbamoyl)benzyl]amide] | 7.01
12 | O=C(Nc1nn[nH]n1)c1ccc(CN(C(=O)c2cc(-c3ccc(Cl)cc3)cs2)c2ccc(C3CCCCC3)cc2)cc1 [Example 565, 4-(4-Chlorophenyl)thiophene-2-carboxylic acid (4-cyclohexylphenyl)-[4-(2H-tetrazol-5-ylcarbamoyl)benzyl]amide] | 6.02
13 | O=C(Nc1nn[nH]n1)c1ccc(CN(C(=O)Nc2ccc(OC(F)(F)F)c(CO)c2)c2ccc(C3CCCCC3)cc2)cc1 [Example 568] | 7.89
14 | Cc1ccc(NC(=O)N(Cc2ccc(C(=O)NCCS(=O)(=O)O)cc2)c2ccc(C(C)(C)C)cc2)cc1S(C)(=O)=O [Example 569, 2-{4-[1-(4-tert-Butylphenyl)-3-(3-methylsulfonyl-4-methylphenyl)ureidomethyl]-benzoylamino}ethanesulfonic acid] | 5.75

The remaining compounds from weak to strong by pIC50, led by results:

Row | pIC50 | SMILES
15 | 5.76 | CC(C)(C)C1CCC(N(Cc2ccc(C(=O)Nc3nn[nH]n3)cc2)C(=O)C2=CCc3ccccc32)CC1 (stereo not shown) [Example 546, 4-([(4-tert-Butylcyclohexyl)-(3H-indene-1-carbonyl)amino]methyl}-N-(2H-tetrazol-5-yl)benzamide]
16 | 5.96 | CC(C)(C)c1ccc(N(Cc2ccc(C(=O)Nc3nn[nH]n3)cc2)C(=O)c2cc3cc(OC(F)(F)F)ccc3[nH]2)cc1 [Example 559, 5-Trifluoromethoxy-1H-indole-2-carboxylic acid (4-tert-butylphenyl)-[4-(2H-tetrazol-5-ylcarbamoyl)benzyl]amide]
17 | 5.97 | O=C(Nc1nn[nH]n1)c1ccc(CN(C(=O)c2cc3cc(OC(F)(F)F)ccc3[nH]2)c2ccc(C3CCCCC3)cc2)cc1 [Example 558, 5-Trifluoromethoxy-1H-indole-2-carboxylic acid (4-cyclohexylphenyl)-[4-(2H-tetrazol-5-ylcarbamoyl)benzyl]amide]
18 | 6.07 | O=C(Nc1nn[nH]n1)c1ccc(CN(CC(c2ccccc2)c2ccccc2)C(=O)c2cc(-c3ccc(Cl)cc3)cs2)cc1 [Example 566, 4-(4-Chlorophenyl)thiophene-2-carboxylic acid (2,2-diphenyl-ethyl)-[4-(2H-tetrazol-5-ylcarbamoyl)benzyl]amide]
19 | 6.10 | CC(Oc1ccc(OC(F)(F)F)cc1)C(=O)N(Cc1ccc(C(=O)Nc2nn[nH]n2)cc1)c1ccc(N2CCCCC2)cc1 (stereo not shown) [Example 554, 4-({(4-Piperidin-1-ylphenyl)-[2-(4-trifluoromethoxyphenoxy)propionyl]amino}methyl)-N-(2H-tetrazol-5-yl)benzamide]
20 | 6.26 | CC(C)(C)C1CCC(N(Cc2ccc(C(=O)Nc3nn[nH]n3)cc2)C(=O)/C=C/c2cccc3ccccc23)CC1 (stereo not shown) [Example 544]
21 | 6.51 | CC(Oc1cccc(Cl)c1)C(=O)N(Cc1ccc(C(=O)Nc2nn[nH]n2)cc1)C1CCC(C(C)(C)C)CC1 (stereo not shown) [Example 548, 4-({(4-tert-Butylcyclohexyl)-[2-(3-chlorophenoxy)propionyl]amino}methyl)-N-(2H-tetrazol-5-yl)benzamide]
22 | 6.84 | CC(C)(C)C1CCC(N(Cc2ccc(C(=O)NCCC(=O)O)cc2)C(=O)c2cc3cc(Cl)ccc3o2)CC1 (stereo not shown) [Example 562, 3-(4-{[(4-tert-Butylcyclohexyl)-(5-chlorobenzofuran-2-carbonyl)amino]methyl}benzoylamino)propionic acid]
23 | 6.88 | CC(C)(C)C1CCC(N(Cc2ccc(C(=O)Nc3nn[nH]n3)cc2)C(=O)/C=C/c2c(Cl)cccc2Cl)CC1 (stereo not shown) [Example 552, 4-({(4-tert-Butylcyclohexyl)-[3-(2,6-dichlorophenyl)acryloyl]amino}methyl)-N-(2H-tetrazol-5-yl)benzamide]
24 | 7.33 | CC(C)(C)C1CCC(N(Cc2ccc(C(=O)Nc3nn[nH]n3)cc2)C(=O)CCCc2ccccc2)CC1 (stereo not shown) [Example 545, 4-([(4-tert-Butylcyclohexyl)-(4-phenylbutyryl)amino]methyl}-N-(2H-tetrazol-5-yl)benzamide]
25 | 8.30 | O=C(Nc1nn[nH]n1)c1ccc(CN(C(=O)Nc2cccc(C(F)(F)F)c2)c2ccc(C3CCCCC3)cc2)cc1 [Example 567, 4-[1-(4-Cyclohexylphenyl)-3-(3-trifluoromethylphenyl)ureidomethyl]-N-(2H-tetrazol-5-yl)benzamide]
